In patent US20210244728A1, “Method of treating peripheral neuropathy” (Chemedest Ltd., priority 2012, published 2021):

Assays:
[1] = tested on: sciatic-ligated rats; experiment: Von Frey test in Bennett model (chronic constrictive injury of the sciatic nerve) of neuropathic pain; format: in vivo, Male Sprague Dawley rats
Source text: The study was designed to evaluate the analgesic efficacy of compound XV (CHM-65) in the Bennett model of neuropathic pain.
Male Sprague Dawley rats (100-125 g) from Harlan (Indianapolis, Ind.) were used in the study. Upon receipt, rats were assigned unique identification numbers and were group housed with 3 rats per cage in polycarbonate cages with micro-isolator filter tops. All rats were examined, handled, and weighed prior to initiation of the study to assure adequate health and suitability. During the course of the study, 12/12 light/dark cycles were maintained, with lights on at 7:00 am EST. The room temperature was maintained between 20 and 23° C. with a relative humidity maintained around 50%. Chow and water were provided ad libitum for the duration of the study. […]
This surgery was performed according to Bennett and Xie (1988). […] Each rat was monitored until awake and moving freely around the recovery chamber. […]
Withdrawal from a mechanical stimulus was measured by applying von Frey (VF) filaments of ascending bending force to the plantar surface of the hind paws (ipsilateral and contralateral). […]
Data were analyzed by one-way analysis of variance (ANOVA) followed by Fisher PLSD post-hoc comparisons. […]

[2] = tested on: spinal nerve-ligated rats; experiment: Von Frey test in Chung model (spinal nerve ligation) of neuropathic pain; format: in vivo; conditions: for Signs of sedation or toxicity: during pretreatment or testing
Source text: The study was designed to evaluate the analgesic efficacy of test compounds in the rat Chung model of neuropathic pain.
Male Sprague Dawley rats (100-125 g) from Harlan (Indianapolis, Ind.) were used in the study. Upon receipt, rats were assigned unique identification numbers and were group housed with 3 rats per cage in polycarbonate cages with micro-isolator filter tops. All rats were examined, handled, and weighed prior to initiation of the study to assure adequate health and suitability. During the course of the study, 12/12 light/dark cycles were maintained, with lights on at 7:00 am EST. The room temperature was maintained between 20 and 23° C. with a relative humidity maintained around 50%. Chow and water were provided ad libitum for the duration of the study.
Reference compound: Gabapentin (100 mg/kg; TRC, Lot No. 1-SWM-154-1) was dissolved in saline and administered acutely on test day (day 8 or 12) 1 hour prior to testing, at a dose volume of 1 ml/kg, p.o.
Test compounds: CHM-65 (5, 15 and 25 mg/kg, Q.D., Lot n/a) was dissolved in sterile injectable saline and administered subcutaneously on days 1, 3, 5 and 8 with the first administration (day 1) occurring 1 hour post-op. On day 8, compound was administered 1 hour prior to testing. The dose volume was 3 ml/kg.
CHM-36 (20 mg/kg, Q.D., Lot n/a) was dissolved in sterile injectable saline and administered subcutaneously on days 1, 3, 5 and 8 with the first administration (day 1) occurring 1 hour post-op. On day 8, compound was administered 1 hour prior to testing. The dose volume was 5 ml/kg.
Artemin (CHMB-1) (0.5 mg/kg, Q.D., Lot n/a) was administered subcutaneously on days 1, 3, 5, 8, 10 and 12 with the first administration (day 1) occurring 1 hour post-op. On day 12, compound was administered 1 hour prior to testing. The dose volume was 0.5 ml/kg.
Under general anesthesia with continuous inhalation of isoflurane, surgery was performed with aseptic procedures in surgery unit. Sterile ophthalmic ointment was used to lubricate the eyes. Animals were observed continuously for the level of anesthesia, testing for the animal's reflex response to tail or paw pinch and closely monitoring the animal's breathing. A heating pad was used to maintain body temperature at 37° C. while the animals recovered from anesthesia. The skin at the area of the lower lumber and sacral level of the rat was shaved and disinfected with betadine and alcohol. A left longitudinal incision at the level next to the vertebral column was made and the left paraspinal muscles were separated. The transverse process of L6 was removed and nearby connective tissue cleaned to expose L5 and L6 spinal nerves. After the nerves were isolated and clearly visualized, 4-0 silk threads were used to ligate the left L5. The muscles were sutured with 4-0 silk threads and the wound closed by staples. All rats received an analgesic (buprenorphine, 0.05 mg/kg, s.c.) immediately before and 6 hours after surgery. Each rat was monitored until awake and moving freely around the recovery chamber. Animals were then single-housed for the duration of the study. Rats began their chronic-treatment regimen (all test groups except gabapentin) 1 hour post-op on surgery day.
Withdrawal from a mechanical stimulus was measured by applying von Frey (VF) filaments of ascending bending force to the plantar surface of the hind paws (ipsilateral and contralateral). A positive response was defined as withdrawal from the von Frey filament. […]

[3] = tested on: rats with SNL (spinal nerve ligation); conditions: repeated injection; cited from earlier work
[4] = tested on: animals; conditions: systemic administration in animals; cited from earlier work
[5] = tested on: peripheral neuron populations (dorsal root, trigeminal, nodose, superior cervical ganglia) and cultured fetal ventral mesencephalic DA neurons; conditions: cited from earlier work

| Compound | Signs of sedation or toxicity ([1]; during pretreatment or testing, Bennett model study) | ipsilateral paw withdrawal threshold compared to vehicle ([1]; gabapentin 100 mg/kg p.o., acute on day 12, 1 hour prior to testing, FIG. 3) | Signs of sedation or toxicity ([2]; CHM-36 study) | Signs of sedation or toxicity ([2]; artemin study) | ipsilateral paw withdrawal threshold compared to vehicle ([2]; gabapentin 100 mg/kg p.o., acute on test day, 1 hour prior to testing, CHM-36 study, FIG. 5) | ipsilateral paw withdrawal threshold compared to vehicle ([2]; gabapentin 100 mg/kg p.o., acute on test day, 1 hour prior to testing, artemin study, FIG. 7) | ipsilateral paw withdrawal threshold compared to vehicle ([2]; 0.5 mg/kg s.c. on days 1, 3, 5, 8, 10 and 12, tested day 12, 1 hour after administration, FIG. 7) | behavioral responses to light touch and noxious thermal stimuli [3] | behavioral signs of toxicity [3] | restoration of nociceptive and sensorimotor functions [4] | survival of peripheral neuron populations and cultured fetal ventral mesencephalic DA neurons [5] |
| --- | --- | --- | --- | --- | --- | --- | --- | --- | --- | --- | --- |
| NCC1(CC(=O)O)CCCCC1 [gabapentin, Gabapentin] | not observed | significantly increased | not observed | not observed | significantly increased | significantly increased | – | – | – | – | – |
| CHMB-1: GDNF family ligand artemin (ARTN), neurotrophic factor signalling through GFR α 3/RET | – | – | – | – | – | – | significantly increased | dose-dependent normalization | without producing behavioral signs of toxicity | essentially complete and persistent restoration | promote the survival |
